Reference: ChEMBL document CHEMBL1201862, “PubChem BioAssay data set” (2004)
Calls of active or inactive are those of the source.

Assays:
[1] = NIH3T3 cell viability loss – ATP luminescence, mouse fibroblasts, counter-screen, dose response (AID 2010); type: functional, cell-based;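 further: cells exposed to compound for about 90 hours before reading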
[2] = Trypanosoma cruzi growth suppression in host cells – NIH3T3 host cells, beta-gal luminescence, confirmation (AID 2044); type: functional, cell-based;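 further: intracellular parasites grown in NIH/3T3 mouse fibroblasts as host cells; luminescent beta-galactosidase reporter signal from transgenic T. cruzi replicating inside host cells; inhibitors lower the luminescence signal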
[3] = target: Heat shock protein HSP 90-alpha (Homo sapiens, UniProt P07900); type: functional, organism-based
[4] = viability loss in THP-1 monocytes – THP-1 cells, cytotoxicity control for Vif-APOBEC3G degradation inhibitor project, dose response (AID 1117359); type: functional; conditions: THP-1
[5] = target: Peroxisome proliferator-activated receptor gamma/Nuclear receptor coactivator 2 (Homo sapiens, UniProt P37231); type: functional;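 further: agonist potency for raising coactivator recruitment to the receptor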
[6] = target: Peroxisome proliferator-activated receptor gamma/Nuclear receptor coactivator 1 (Homo sapiens, UniProt P37231); type: functional;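 further: agonist potency as compounds enhance coactivator SRC-1 recruitment to PPARgamma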
Chain of Peroxisome proliferator-activated receptor gamma/Nuclear receptor coactivator 1 (P37231 whole entry): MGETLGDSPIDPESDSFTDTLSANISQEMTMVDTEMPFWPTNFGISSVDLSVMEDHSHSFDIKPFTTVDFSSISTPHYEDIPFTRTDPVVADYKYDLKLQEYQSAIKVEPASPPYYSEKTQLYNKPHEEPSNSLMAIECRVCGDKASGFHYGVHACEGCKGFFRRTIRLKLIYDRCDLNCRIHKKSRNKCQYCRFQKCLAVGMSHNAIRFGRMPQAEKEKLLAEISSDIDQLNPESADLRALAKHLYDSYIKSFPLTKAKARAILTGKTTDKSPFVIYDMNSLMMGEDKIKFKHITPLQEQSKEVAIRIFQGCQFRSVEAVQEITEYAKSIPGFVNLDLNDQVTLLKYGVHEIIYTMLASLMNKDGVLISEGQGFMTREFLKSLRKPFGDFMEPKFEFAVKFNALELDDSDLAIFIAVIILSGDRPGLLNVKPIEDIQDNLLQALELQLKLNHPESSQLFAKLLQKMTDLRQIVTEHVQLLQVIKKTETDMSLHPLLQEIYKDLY
Chain of Peroxisome proliferator-activated receptor gamma/Nuclear receptor coactivator 1 (Q15788 whole entry, further chain): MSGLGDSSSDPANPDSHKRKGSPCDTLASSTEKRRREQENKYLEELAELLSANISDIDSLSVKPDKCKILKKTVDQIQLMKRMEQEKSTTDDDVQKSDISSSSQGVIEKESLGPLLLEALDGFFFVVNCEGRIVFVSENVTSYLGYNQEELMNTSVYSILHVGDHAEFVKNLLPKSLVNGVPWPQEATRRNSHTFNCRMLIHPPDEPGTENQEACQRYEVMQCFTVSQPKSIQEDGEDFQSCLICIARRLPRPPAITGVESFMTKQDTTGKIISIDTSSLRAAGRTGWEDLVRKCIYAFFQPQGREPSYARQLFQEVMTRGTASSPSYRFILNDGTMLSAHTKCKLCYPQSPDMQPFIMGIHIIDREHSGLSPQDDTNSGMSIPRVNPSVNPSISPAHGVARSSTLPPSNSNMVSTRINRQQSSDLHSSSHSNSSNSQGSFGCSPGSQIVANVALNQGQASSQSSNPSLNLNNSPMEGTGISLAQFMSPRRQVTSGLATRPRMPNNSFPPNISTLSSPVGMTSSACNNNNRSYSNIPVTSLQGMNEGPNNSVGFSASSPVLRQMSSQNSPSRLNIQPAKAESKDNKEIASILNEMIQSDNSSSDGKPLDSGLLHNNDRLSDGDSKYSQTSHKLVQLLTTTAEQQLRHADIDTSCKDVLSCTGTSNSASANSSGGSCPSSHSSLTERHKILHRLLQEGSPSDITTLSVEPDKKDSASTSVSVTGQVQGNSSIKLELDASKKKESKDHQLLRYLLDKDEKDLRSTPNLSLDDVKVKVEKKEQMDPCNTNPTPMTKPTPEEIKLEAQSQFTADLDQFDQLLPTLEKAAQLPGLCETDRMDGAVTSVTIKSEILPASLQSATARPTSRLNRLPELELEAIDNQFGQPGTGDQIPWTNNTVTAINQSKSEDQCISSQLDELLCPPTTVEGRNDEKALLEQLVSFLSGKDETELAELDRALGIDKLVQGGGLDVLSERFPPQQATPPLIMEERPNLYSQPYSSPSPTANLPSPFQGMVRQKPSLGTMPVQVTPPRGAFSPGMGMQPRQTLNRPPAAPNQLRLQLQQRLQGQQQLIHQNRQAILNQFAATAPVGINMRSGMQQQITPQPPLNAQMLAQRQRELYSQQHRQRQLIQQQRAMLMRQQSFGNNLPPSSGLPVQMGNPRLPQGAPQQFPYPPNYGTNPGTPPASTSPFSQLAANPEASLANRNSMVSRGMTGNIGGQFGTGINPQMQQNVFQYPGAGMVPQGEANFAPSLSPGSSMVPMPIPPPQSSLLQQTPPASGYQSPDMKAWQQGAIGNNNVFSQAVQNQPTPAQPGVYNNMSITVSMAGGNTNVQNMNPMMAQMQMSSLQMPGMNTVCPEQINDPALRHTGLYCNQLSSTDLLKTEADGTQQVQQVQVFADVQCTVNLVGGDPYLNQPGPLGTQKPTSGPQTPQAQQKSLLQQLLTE

[7] = target: Peroxisome proliferator-activated receptor gamma/Nuclear receptor coactivator 3 (Homo sapiens, UniProt P37231); type: functional;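 further: agonist potency for raising coactivator recruitment to the receptor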
Chain of Peroxisome proliferator-activated receptor gamma/Nuclear receptor coactivator 3 (P37231 whole entry): as the sequence (P37231 whole entry) above
Chain of Peroxisome proliferator-activated receptor gamma/Nuclear receptor coactivator 3 (Q9Y6Q9 whole entry, further chain): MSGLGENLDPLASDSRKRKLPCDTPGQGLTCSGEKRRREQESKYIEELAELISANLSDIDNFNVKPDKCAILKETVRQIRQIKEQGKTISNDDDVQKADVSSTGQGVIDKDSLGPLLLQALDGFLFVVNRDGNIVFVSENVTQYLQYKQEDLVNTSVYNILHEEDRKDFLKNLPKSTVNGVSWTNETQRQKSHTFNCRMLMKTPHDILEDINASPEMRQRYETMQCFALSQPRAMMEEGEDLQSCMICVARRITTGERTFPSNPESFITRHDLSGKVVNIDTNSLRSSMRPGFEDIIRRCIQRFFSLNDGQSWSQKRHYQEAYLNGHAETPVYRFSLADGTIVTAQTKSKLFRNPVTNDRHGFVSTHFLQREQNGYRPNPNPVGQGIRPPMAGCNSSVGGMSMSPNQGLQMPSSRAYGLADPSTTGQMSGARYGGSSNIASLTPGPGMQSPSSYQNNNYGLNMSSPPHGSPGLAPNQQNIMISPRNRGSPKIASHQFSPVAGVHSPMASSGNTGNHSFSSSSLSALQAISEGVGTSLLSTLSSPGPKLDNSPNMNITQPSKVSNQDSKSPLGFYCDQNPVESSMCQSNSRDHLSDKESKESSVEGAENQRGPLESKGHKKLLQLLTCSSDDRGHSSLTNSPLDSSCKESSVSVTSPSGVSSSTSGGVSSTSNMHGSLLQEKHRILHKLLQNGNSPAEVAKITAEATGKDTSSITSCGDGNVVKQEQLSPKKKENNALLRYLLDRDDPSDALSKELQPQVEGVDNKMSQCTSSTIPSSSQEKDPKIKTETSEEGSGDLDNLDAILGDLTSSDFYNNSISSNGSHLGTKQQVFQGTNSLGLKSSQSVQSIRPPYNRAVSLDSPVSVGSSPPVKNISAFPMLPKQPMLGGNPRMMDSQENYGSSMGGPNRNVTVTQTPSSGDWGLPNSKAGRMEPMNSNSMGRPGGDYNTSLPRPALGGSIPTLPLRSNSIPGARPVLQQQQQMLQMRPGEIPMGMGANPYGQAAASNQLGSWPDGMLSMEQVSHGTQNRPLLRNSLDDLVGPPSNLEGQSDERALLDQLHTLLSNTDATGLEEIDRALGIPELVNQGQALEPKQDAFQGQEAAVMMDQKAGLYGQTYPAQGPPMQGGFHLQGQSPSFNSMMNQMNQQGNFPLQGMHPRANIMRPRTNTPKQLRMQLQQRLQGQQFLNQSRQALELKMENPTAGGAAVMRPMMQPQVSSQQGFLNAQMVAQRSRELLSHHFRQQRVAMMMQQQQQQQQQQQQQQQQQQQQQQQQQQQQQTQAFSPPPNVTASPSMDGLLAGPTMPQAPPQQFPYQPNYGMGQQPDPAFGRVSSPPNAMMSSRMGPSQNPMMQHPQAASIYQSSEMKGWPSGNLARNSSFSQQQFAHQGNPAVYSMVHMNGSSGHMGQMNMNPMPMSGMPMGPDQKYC

[8] = blockers of bursicon-stimulated LGR2 cAMP reporter – cell-based, HEK293, CRE-luciferase reporter, cherry pick, set 2, dose response (AID 743343); type: functional;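 further: transfected cells were stimulated with diluted bursicon conditioned medium after compound addition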
[9] = blockade of melanocortin 4 receptor signaling – cell-based, plate reader, cherry pick, counter-screen for LGR2 antagonist project, dose response (AID 743444); type: functional;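 further: transfected HEK 293 cells stimulated with alpha-MSH peptide; potency of inhibitors of the alpha-MSH evoked signal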
[10] = viability loss in HEK293 cells – cell-based, plate reader, cherry-picked samples, cytotoxicity control, dose response (AID 743446); type: functional
[11] = A549 cell cytotoxicity, dose response, cytotoxicity control, plate reader, cherry-pick, antagonist series (AID 743412); type: functional, cell-based
HEK293 = assay: EBV LMP1 TES2 canonical NF-kB signalling blockers – cell-based, HEK293, luciferase, cherry-pick, dose response (AID 588343); type: functional; conditions: Homo sapiens
[12] = target: T1, Heat shock factor protein 1 (Mus musculus, UniProt P38532); assay: decrease of HSF1-responsive luciferase luminescence – cell-based, NIH3T3, dose retest, confirmation (AID 2382); type: functional;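 further: NIH3T3 fibroblasts with HSF1-driven luciferase reporter stressed by proteasome inhibitor MG132; luminescence from HSF1-driven luciferase expression after 8 hours of MG132 stress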
T1 sequence (P38532 whole entry): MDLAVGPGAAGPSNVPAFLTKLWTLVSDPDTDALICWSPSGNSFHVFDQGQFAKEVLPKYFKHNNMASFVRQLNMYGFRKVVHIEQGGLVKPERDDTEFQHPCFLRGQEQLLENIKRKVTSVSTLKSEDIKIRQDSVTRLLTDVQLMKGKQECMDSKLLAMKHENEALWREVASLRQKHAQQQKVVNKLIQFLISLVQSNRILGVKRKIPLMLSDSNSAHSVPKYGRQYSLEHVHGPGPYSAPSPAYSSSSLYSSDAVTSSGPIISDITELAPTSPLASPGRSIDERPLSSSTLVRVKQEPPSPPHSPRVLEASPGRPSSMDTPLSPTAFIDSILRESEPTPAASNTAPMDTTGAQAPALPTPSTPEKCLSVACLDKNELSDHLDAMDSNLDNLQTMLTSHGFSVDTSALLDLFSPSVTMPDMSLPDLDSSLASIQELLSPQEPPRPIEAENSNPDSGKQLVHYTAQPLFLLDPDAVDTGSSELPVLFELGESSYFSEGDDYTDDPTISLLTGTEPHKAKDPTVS

[13] = Luminescence Cell-Based Dose Retest to Confirm Inhibitors of Cancer Stem Cells. [Related pubchem assays (depositor defined):AID2717, AID2721]; type: functional; conditions: Homo sapiens
[14] = NIH-3T3 fibroblast cytotoxicity, dose response, cytotoxicity control, cell-based, fluorescence, Alamar Blue, secondary assay (AID 2327); type: functional;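 further: NIH-3T3 mouse fibroblasts cultured with fluconazole at 8 µg/mL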
Genome polyprotein = Genome polyprotein (dengue virus type 2, UniProt P29990); assay: flavivirus cap methylation enzyme inhibition – biochemical, confirmation dose response, primary screen (AID 588689); type: functional
Chain of Genome polyprotein (P29990 2492-3391 limits assumed): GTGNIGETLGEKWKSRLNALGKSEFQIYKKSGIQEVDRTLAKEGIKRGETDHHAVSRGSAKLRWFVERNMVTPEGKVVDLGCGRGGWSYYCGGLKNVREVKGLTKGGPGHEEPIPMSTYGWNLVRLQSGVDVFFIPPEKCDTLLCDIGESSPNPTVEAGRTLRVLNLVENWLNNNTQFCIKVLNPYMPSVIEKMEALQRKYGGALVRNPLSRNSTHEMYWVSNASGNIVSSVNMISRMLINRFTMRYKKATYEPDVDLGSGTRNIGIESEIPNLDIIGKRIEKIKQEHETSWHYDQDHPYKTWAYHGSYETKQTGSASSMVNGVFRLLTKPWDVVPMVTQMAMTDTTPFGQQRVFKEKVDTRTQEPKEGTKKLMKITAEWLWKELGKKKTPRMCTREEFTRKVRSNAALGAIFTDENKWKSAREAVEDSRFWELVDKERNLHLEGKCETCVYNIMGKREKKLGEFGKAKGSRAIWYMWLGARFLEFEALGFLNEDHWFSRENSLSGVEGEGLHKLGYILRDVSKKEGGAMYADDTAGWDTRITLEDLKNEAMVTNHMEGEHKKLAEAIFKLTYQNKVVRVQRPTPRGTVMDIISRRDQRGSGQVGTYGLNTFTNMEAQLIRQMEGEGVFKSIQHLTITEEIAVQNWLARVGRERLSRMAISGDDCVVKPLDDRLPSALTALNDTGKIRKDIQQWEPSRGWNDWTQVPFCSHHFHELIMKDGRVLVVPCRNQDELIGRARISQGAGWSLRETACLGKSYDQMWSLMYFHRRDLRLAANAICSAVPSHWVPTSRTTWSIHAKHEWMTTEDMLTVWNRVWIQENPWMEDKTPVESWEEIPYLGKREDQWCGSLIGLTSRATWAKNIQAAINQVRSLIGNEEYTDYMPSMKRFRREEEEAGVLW

[15] = target: FAD-linked sulfhydryl oxidase ALR (Homo sapiens, UniProt P55789); assay: ALR-catalysed DTT oxidation blockers – biochemical, H2O2 detection, luminescence, cherry-pick, dose response (AID 493248)
Chain of FAD-linked sulfhydryl oxidase ALR (P55789 whole entry): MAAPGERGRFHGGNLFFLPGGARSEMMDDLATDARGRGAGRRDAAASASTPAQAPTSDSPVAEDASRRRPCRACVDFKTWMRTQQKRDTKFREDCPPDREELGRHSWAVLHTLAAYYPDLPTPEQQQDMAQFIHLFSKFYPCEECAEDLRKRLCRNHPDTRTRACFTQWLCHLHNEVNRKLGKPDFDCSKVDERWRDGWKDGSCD

Protein RecA = target: T2, Protein RecA (Mycobacterium tuberculosis, UniProt P9WHJ3); assay: Fluorescence Cell-Free Homogeneous Dose Retest to Identify Inhibitors of RecA-Intein Splicing Activity. [Related pubchem assays (depositor defined):AID2097, AID2223, AID489010, AID492950]; type: functional
T2 sequence (P9WHJ3 whole entry): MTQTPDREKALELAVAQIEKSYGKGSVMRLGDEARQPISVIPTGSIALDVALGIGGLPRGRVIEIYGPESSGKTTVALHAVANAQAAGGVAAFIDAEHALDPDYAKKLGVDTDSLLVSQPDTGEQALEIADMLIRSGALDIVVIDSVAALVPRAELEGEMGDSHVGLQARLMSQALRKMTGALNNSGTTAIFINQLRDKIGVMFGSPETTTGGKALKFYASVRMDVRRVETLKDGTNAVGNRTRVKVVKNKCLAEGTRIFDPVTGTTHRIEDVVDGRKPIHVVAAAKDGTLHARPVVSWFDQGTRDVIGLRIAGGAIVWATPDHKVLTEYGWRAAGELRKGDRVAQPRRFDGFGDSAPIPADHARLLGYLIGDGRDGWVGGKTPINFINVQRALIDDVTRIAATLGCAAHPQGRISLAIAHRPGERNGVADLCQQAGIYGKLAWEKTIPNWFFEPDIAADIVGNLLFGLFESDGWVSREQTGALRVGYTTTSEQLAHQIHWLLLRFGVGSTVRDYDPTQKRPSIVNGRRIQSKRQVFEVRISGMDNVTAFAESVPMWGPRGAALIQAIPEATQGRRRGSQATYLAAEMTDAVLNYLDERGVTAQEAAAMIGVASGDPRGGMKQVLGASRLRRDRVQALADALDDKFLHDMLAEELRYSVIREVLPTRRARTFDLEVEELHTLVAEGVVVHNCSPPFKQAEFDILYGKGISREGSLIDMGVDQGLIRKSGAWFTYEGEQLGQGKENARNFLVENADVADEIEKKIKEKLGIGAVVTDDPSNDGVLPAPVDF

[16] = target: T3, Replicative DNA helicase DnaB (Mycobacterium tuberculosis, UniProt P9WMR3); assay: DnaB intein splicing inhibitors, dose response, biochemical, cell-free fluorescence (AID 449749); type: functional
T3 sequence (P9WMR3 whole entry): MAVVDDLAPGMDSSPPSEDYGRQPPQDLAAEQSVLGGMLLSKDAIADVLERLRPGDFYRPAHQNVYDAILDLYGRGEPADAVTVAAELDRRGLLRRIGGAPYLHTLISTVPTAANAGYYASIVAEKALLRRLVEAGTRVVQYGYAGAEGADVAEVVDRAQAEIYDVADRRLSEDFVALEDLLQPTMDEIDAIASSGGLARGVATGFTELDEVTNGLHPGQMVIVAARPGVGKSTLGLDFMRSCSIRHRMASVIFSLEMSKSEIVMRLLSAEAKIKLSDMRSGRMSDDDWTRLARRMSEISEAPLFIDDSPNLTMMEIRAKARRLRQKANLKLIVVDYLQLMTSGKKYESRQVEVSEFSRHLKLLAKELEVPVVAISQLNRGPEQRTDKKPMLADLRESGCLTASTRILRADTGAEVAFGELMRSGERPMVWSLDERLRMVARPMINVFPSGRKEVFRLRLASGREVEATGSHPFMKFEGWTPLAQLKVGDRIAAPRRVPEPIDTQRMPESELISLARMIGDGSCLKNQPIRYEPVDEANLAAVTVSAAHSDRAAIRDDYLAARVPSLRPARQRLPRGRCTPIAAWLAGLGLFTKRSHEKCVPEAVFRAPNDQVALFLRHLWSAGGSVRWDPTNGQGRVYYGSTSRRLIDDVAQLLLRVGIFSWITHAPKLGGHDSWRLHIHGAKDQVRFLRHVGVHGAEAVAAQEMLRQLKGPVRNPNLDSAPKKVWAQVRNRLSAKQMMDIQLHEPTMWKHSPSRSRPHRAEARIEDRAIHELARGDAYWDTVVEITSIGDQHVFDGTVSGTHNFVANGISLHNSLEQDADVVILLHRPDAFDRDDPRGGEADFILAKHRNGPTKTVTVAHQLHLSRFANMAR

Question: For `O=c1c2ccccc2nc(-c2ccc(-c3ccccc3)cc2)n1-c1ccncc1`, which EC50 [1] is on record?
Answer: Its EC50 is > 60 µM (not active).

Question: And the EC50 [2]?
Answer: The EC50 was 0.398 µM (active).

Question: And the AC50 [3]?
Answer: Its AC50 is 2.73 µM (active).

Question: For `COc1ccc(NC(=O)CC2Nc3cccc4cccc(c34)NC2=O)cc1` (centres undefined), which CC50 [4] is on record?
Answer: The CC50 was > 40 µM (active).

Question: Which EC50 [5] does the source give for `COc1ccc(-c2cc(-c3cccs3)c(C#N)c(SCC(=O)NCc3ccccc3OC)n2)cc1` here?
Answer: The EC50 was 8.22 µM (active).

Question: What about the EC50 [6] of the same molecule?
Answer: The EC50 was 10.3 µM (not active).

Question: What about the EC50 [7] of the same molecule?
Answer: The EC50 was 13 µM (not active).

Question: With `CC(=O)Nc1ccc(OCC(O)CNC2CCCC2)cc1` (centres undefined) as the molecule, how does the CC50 [4] read?
Answer: Its CC50 is > 40 µM (active).

Question: With `Cc1nn(-c2ccccn2)c2c1-c1nc(N3CCOCC3)ncc1CC2` as the molecule, how does the EC50 [5] read?
Answer: Its EC50 is > 79.4 µM (not active).

Question: What about the EC50 [6] of the same molecule?
Answer: Its EC50 is > 79.4 µM (not active).

Question: And the EC50 [7]?
Answer: The EC50 was > 79.4 µM (not active).

Question: For `Cc1csc(NC(=O)c2ccc(N3CCCC3=O)cc2)n1`, which AC50 [8] is on record?
Answer: Its AC50 is 2.05 µM (active).

Question: What about the AC50 [9] of the same molecule?
Answer: Its AC50 is 1.93 µM (active).

Question: What about the AC50 [10] of the same molecule?
Answer: Its AC50 is > 52 µM (inactive).

Question: And the AC50 [11]?
Answer: The AC50 was > 52 µM (inactive).

Question: What about the AC50 (HEK293) of the same molecule?
Answer: Its AC50 is 1.52 µM (active).

Question: Which CC50 [4] does the source give for `CCCn1c(NC(=O)c2ccco2)nc2ccccc21` here?
Answer: Its CC50 is > 40 µM (active).

Question: For `Oc1ccc(C2=NN(c3ccccc3)C(c3ccc(F)cc3)C2)cc1` (centres undefined), which EC50 [12] is on record?
Answer: Its EC50 is > 195 µM (not active).

Question: And the AC50 [13]?
Answer: The AC50 was 2.97 µM (active).

Question: And the AC50 [3]?
Answer: The AC50 was 4.34 µM (active).

Question: Which EC50 [5] does the source give for `CCOc1cccc2cc(C(=O)Nc3cc(C)on3)c(=O)oc12` here?
Answer: The EC50 was 22.4 µM (not active).

Question: And the EC50 [6]?
Answer: Its EC50 is 24.6 µM (not active).

Question: What about the EC50 [7] of the same molecule?
Answer: Its EC50 is 30.1 µM (not active).

Question: What does the source list for `O=C(NNc1ccc(O)cc1)c1ccc(Br)cc1`?
Answer: EC50 [14]: 28.9 µM (active); IC50 (Genome polyprotein): > 100 µM (active); AC50 [15]: 0.096 µM (active)

Question: With `CC1=NN(Cc2ccccc2)C(=O)C1C(c1ccc(Cl)cc1)C(C#N)C#N` (centres undefined) as the molecule, how does the IC50 (Genome polyprotein) read?
Answer: The IC50 was 55.2 µM (active).

Question: And the EC50 (Protein RecA)?
Answer: Its EC50 is 2.5 µM (active).

Question: What about the AC50 [16] of the same molecule?
Answer: Its AC50 is 5.34 µM (active).
